The values below come from article PMC8580996, “2-Oxoglutarate derivatives can selectively enhance or inhibit the activity of human oxygenases” (Nature Communications, 2021).

Entries after “also recorded” stand apart in the source; their conditions may differ.

In assay [1] the target is T1, AspH (Homo sapiens, UniProt Q12797).
T1 construct: the tetratricopeptide repeat domain (His6-AspH315-758), was produced and purified as previously reported; made in house
T1 sequence (Q12797 315-758): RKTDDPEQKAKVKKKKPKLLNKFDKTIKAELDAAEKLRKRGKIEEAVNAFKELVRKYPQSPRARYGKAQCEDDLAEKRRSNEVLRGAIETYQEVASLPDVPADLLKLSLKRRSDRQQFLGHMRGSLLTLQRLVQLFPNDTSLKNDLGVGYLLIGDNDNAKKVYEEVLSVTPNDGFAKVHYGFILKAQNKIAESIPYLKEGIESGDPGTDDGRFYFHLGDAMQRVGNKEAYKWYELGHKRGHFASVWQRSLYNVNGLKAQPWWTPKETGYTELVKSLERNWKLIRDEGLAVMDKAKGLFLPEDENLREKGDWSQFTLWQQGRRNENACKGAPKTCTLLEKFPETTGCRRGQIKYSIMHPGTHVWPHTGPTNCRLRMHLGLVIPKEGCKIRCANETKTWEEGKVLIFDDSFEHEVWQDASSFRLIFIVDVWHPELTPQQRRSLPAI
The note with it: 0.05 μM AspH, 1.0 μM hFX-CP101-119, 3.0 μM 2OG, ref 21 (supplementary ref 1); cited from earlier work.

In assay [2] the target is T2, FIH (Homo sapiens, UniProt Q9NWT6). The assay can be described thus: Competition assay in a single reaction vessel, FIH-catalyzed hydroxylation (SPE-MS). Type of assay: biochemical. The protocol: (§1) Mean of three independent runs (n = 3; mean ± SD). […] Cosubstrates: a 20 μM 2OG; b 20 μM 2OG; c 20 μM 1; d 20 μM 12; e 20 μM 12 and 100 μM 2OG; f 100 μM 14. Source data are provided as a Source Data file.
T2 sequence (Q9NWT6 whole entry): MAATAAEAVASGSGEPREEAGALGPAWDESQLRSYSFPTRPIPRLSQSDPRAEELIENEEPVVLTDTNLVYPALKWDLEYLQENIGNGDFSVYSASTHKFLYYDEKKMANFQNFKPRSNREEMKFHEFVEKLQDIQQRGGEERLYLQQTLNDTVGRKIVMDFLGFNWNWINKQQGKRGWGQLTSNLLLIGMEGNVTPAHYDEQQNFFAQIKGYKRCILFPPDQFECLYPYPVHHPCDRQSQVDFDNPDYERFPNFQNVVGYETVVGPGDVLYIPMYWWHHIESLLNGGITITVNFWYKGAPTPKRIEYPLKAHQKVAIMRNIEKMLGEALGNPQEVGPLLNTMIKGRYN

(§2) Mean of three independent runs (n = 3; mean ± SD). […] Source data are provided as a Source Data file.
(§3) Peptide turnover was monitored by SPE-MS using the same instrument configuration (with the exception that the peptides were eluted from the SPE cartridge with 0.1%v/v aqueous formic acid in 80/20 v/v acetonitrile/water) as described above.
(§4) FIH and AspH-catalyzed peptide hydroxylations were analyzed simultaneously using SPE-MS as described in the
(§5) Methods section; competition experiments were performed in the same reaction vessel using equimolar 2OG
(§6) oxygenase and substrate concentrations. […]
(§7) Source data are provided as a Source Data file.
(§8) FIH and AspH-catalyzed peptide hydroxylations were analyzed simultaneously using SPE-
(§9) MS as described in the Methods section; competition experiments were performed in the same reaction vessel
(§10) using equimolar 2OG oxygenase and substrate concentrations. […]
(§11) 2OG, 100 μM 14. Source data are provided as a Source Data file.

Assay [3] concerns the target T1, AspH. The assay can be described thus: Competition assay in a single reaction vessel, AspH-catalyzed hydroxylation (SPE-MS). Type of assay: biochemical. How it is done: as §1, §2, §3, §4, §5, §6, §7, §8, §9, §10, §11
For assay [4], the target named is T2, FIH. The assay can be described thus: SPE-MS FIH turnover (cosubstrate) assay in the absence of 2OG. It counts as biochemical. The conditions noted are these: 330 μM 2OG or 2OG derivative, no 2OG, t = 15 min. The protocol:
The ability of 35 synthetic C3/C4-substituted 2OG derivatives, which were prepared via a reported procedure (Supplementary Fig. 1 and Supplementary Methods)[21], to sustain catalysis by purified recombinant FIH in the absence of 2OG was examined using an assay directly monitoring substrate depletion and product formation (i.e., a +16 Da mass shift) by solid-phase extraction (SPE) coupled to mass spectrometry (SPE-MS)[44],[45]. […] (i.e. CA1–20)[47], were used as FIH substrates to test for potential substrate-dependent differences in terms of cosubstrate analog selectivity.
Assay samples were aspirated under vacuum for 0.6 s and loaded onto a C4 SPE cartridge. After loading, the C4 SPE cartridge was washed with 0.1%v/v aqueous formic acid to remove non-volatile buffer salts (5.5 s, 1.5 mL/min). […] The mass spectrometer was operated using the MassHunter Workstation B.08.00 software (Agilent), the mass spectrometer parameters were: capillary voltage (4000 V), nozzle voltage (1000 V), fragmentor voltage (365 V), gas temperature (280 °C), gas flow (13 L/min), sheath gas temperature (350 °C), sheath gas flow (12 L/min). […] Data were exported into Microsoft Excel and used to calculate the % conversion of the hydroxylation reaction using the equation: % conversion = 100 × (integral product peptide)/(integral substrate peptide+integral product peptide). […] Z′-factors were calculated according to the cited literature using Microsoft Excel (Supplementary Fig. 26)[83].

Assay [5] has as its target T2, FIH. Put plainly: SPE-MS FIH inhibition assay. Type of assay: biochemical. The conditions noted are these: source data of Table 3, single independent replicates. How it is done:
FIH inhibition assays were performed as described, using cosubstrate/cofactor stock solutions (L-ascorbic acid, LAA: 50 mM in MQ-grade water; 2-oxoglutarate, 2OG: 10 mM in MQ-grade water; ammonium iron(II) sulfate hexahydrate, FAS, (NH4)2Fe(SO4)2·6H2O: 400 mM in 20 mM HCl diluted to 1 mM in MQ-grade water), which were freshly prepared from commercially-sourced solids (Sigma Aldrich).
Dimethyl sulfoxide (DMSO) solutions of the 2OG derivatives were dry dispensed across 384-well polypropylene assay plates (Greiner) in an approximately threefold and 11-point dilution series (100 μM top concentration; the final DMSO assay concentration was kept constant at 0.5%v/v) using an ECHO 550 acoustic dispenser (Labcyte). […] Each reaction was performed in technical duplicates in adjacent wells of the assay plates; additionally, assays were performed in two independent duplicates on different days using different inhibitor solutions.
The Enzyme Mixture (25 μL/well), containing 0.3 μM His6-FIH in buffer (50 mM Tris, 50 mM NaCl, pH 7.5), was dispensed across the inhibitor-containing 384-well assay plates with a multidrop dispenser (ThermoFischer Scientific) at 20 °C under an ambient atmosphere. The plates were subsequently centrifuged (1000 rpm, 15 s) and incubated for 15 min at 20 °C. The Substrate Mixture (25 μL/well), containing 10.0 μM HIF-1α788–822[37] substrate, 200 μM LAA, 20.0 μM 2OG, and 20.0 μM FAS in buffer (50 mM Tris, 50 mM NaCl, pH 7.5), was added using the multidrop dispenser. The plates were centrifuged (1000 rpm, 15 s) and after incubating for 15 min, the enzyme reaction was stopped by the addition of 10%v/v aqueous formic acid (5 μL/well). The plates were then centrifuged (1000 rpm, 30 s) and analyzed by MS.
MS-analyses were performed using a RapidFire RF 365 high-throughput sampling robot (Agilent) attached to an iFunnel Agilent 6550 accurate-mass quadrupole time-of-flight mass spectrometer operated in the positive ionization mode. Assay samples were aspirated under vacuum for 0.6 s and loaded onto a C4 SPE cartridge. After loading, the C4 SPE cartridge was washed with 0.1%v/v aqueous formic acid to remove non-volatile buffer salts (5.5 s, 1.5 mL/min). […] The mass spectrometer was operated using the MassHunter Workstation B.08.00 software (Agilent), the mass spectrometer parameters were: capillary voltage (4000 V), nozzle voltage (1000 V), fragmentor voltage (365 V), gas temperature (280 °C), gas flow (13 L/min), sheath gas temperature (350 °C), sheath gas flow (12 L/min). The m/z + 2 (for CA1–20) or +3 (for HIF-1α788–822) charge states of the peptide (substrate) and the hydroxylated peptide (product) were used to extract ion chromatogram data, peak areas were integrated using RapidFire Integrator 4.3.0 (Agilent). Data were exported into Microsoft Excel and used to calculate the % conversion of the hydroxylation reaction using the equation: % conversion = 100 × (integral product peptide)/(integral substrate peptide+integral product peptide). […] Z′-factors were calculated according to the cited literature using Microsoft Excel (Supplementary Fig. 26)[83].
SPE-MS FIH inhibition assays were performed as described in the Methods section.
Tris, 50 mM NaCl, pH 7.5, 20 °C). […]

Assay [6] has as its target T1, AspH. Set-up: method as in PMID 34163896. The note with it: hFX-CP101–119 substrate, 330 μM 2OG or 2OG derivative, t = 15 min; cited from earlier work.
Setting [7] is: Fig 4d, 0.5 mM 13 and 0.5 mM 2OG, after 4 min.

On to `CC(C)(CC(=O)C(=O)O)C(=O)O` [compound 13, 4,4-dimethyl-2OG], for which the IC50 on AspH [1] is ~300 nM. The “effect on FIH activity” value on FIH [2] (Fig 4, 13 from 0 to 2.0 mM, 0.5 mM 2OG) was “no effect on FIH activity”. Also, on FIH [2] (setting [7]), the FIH conversion is on record as ~ 80%. In addition, the AspH-catalyzed substrate hydroxylation at AspH [3] (Fig 4f, fourfold excess of 13 over 0.5 mM 2OG, after 4 min) is < 20%. For the same molecule, on AspH [3] (setting [7]), the AspH conversion is ~ 60%. The figures for the “FIH activity, %-substrate conversion” value at FIH [4] (CA1–20 substrate) and on FIH [4] (HIF-1α788–822 substrate) were ~10% and < 1%, respectively. Moreover, the “FIH IC50, independent replicate” value at FIH [5] was “not inhibiting”. On AspH [6], the “AspH activity, %-substrate conversion” value was <1%.

As to `O=C(O)C(=O)c1ccc(C(=O)O)cc1` [compound 28, 4-Carboxyphenylglyoxylic acid], on AspH [1], the “IC50 AspH” value is “inactive; also recorded: neither inhibits AspH nor FIH catalysis”. Further, the FIH cosubstrate activity entry on FIH [2] (Supplementary Fig 8b, 100 μM 28, 0 μM 2OG) is listed as “no cosubstrate activity”. Besides, the AspH conversion at AspH [3] (Supplementary Fig 8b, 100 μM 28, 0 μM 2OG, after 35 min) is ~ 40%. In addition, the “FIH activity, %-substrate conversion” value is reported as ~10% on FIH [4] (CA1–20 substrate) and < 1% at FIH [4] (HIF-1α788–822 substrate). For the same molecule, the “FIH IC50, independent replicate” value on FIH [5] is “not inhibiting”. At AspH [6], the “AspH activity, %-substrate conversion” value is on record as ~80%.

The term IC50 denotes the concentration that inhibits the measured activity by half.
